# Biological target: hLPAR1 (human lysophosphatidic acid receptor 1, Accession No.: NM_001401.4) (Homo sapiens, UniProt Q92633)
# Assay: cell-based
# Settings: LPAR1 inhibitory activity IC50, Table 1; FLIPR method, CHO-K1 cells overexpressing hLPAR1
# Method: The antagonist properties of the compounds in the present disclosure were determined using the FLIPR (Fluorometric Imaging Plate Reader) method in CHO-K1 cells (Chinese Hamster Ovary cells K1, ATCC) overexpressing hLPAR1 (human lysophosphatidic acid receptor 1, Accession No.: NM_001401.4).
# CHO-K1 cells stably expressing hLPAR1 were placed in a cell culture incubator at 37°C with 5% CO2 and cultured in F-12 medium containing 10% FBS (fetal bovine serum, Gibco, 10099-141), 1% penicillin-streptomycin (Gibco, 15140-122), and 0.4 mg/mL Hygromycin B (Gibco, 10687010). 18-24 hours before the FLIPR experiment, the cells were seeded into a 96-well plate at a density of 250,000 cells/mL (25,000 cells/well) and incubated overnight in the cell culture incubator. On the day of the experiment, the medium was removed, and the cells were washed with FLIPR buffer (2.5 mM probenecid (Thermo, P36400), 1.3 mM CaCl2, 3.3 mM Na2CO3, 1 mM MgSO4, 20 mM HEPES (Invitrogen, 15630080), 1× HBSS (Invitrogen, 14065056), 0.1% BSA (BioSharp, 70080030)). 75 µL of […] Fluo-4 AM fluorescent dye (Thermo, F14202) was added to each well and incubated for 1.0 hour at 37°C for dye loading. The 96-well plate was then washed once with buffer, and 50 µL of buffer containing the test compound or vehicle was added to each well, followed by incubation at room temperature for 30 min. The cell plate was then placed into the FLIPR for baseline fluorescence measurement (excitation wavelength at 485 nm, emission wavelength at 525 to 535 nm). Subsequently, 50 µL/well of agonist (final concentration 1 µM oleoyl-L-α-lysophosphatidic acid sodium salt (Sigma, L7260)) or vehicle (ultrapure water) was added, and fluorescence values were measured at 1-second intervals for 2 min. Finally, the output fluorescence counts were analyzed using GraphPad Prism 9.0 software log(inhibitor) vs. response--Variable slope (four parameters) equation to calculate IC50 values.
# Table 1: Inhibitory activity data of compounds against LPAR1
# Chain of hLPAR1 (human lysophosphatidic acid receptor 1, Accession No.: NM_001401.4) (Q92633 whole entry): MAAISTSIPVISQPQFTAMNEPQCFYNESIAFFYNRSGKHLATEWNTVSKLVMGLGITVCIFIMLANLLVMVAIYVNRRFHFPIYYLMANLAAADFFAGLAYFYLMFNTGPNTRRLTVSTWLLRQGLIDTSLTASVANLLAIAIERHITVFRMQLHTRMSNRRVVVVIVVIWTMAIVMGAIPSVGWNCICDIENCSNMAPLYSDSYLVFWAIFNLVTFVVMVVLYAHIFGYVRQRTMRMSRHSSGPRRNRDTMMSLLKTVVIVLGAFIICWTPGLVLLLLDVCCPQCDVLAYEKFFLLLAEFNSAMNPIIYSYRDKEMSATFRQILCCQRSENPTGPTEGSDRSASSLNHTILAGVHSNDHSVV
row,Compound,IC50 [µM]
1,Cc1nc(-c2nnn(C)c2NC(=O)O[C@H](C)CC2CC2)ccc1C#CC1(CC(=O)O)CC1 [compound 302],0.0247
2,"Cc1nc(-c2nnn(C)c2NC(=O)O[C@H](C)CC(C)(F)F)ccc1C#C[C@@H]1CCC[C@H]1C(=O)O (single isomer, unassigned) [246-A]",0.0183
3,Cc1nc(-c2nnn(C)c2NC(=O)O[C@H](C)CC(C)C)ccc1C#CC1(CC(=O)O)CC1 [compound 220],0.0155

# Same assay, conditions: Table 1; FLIPR method, CHO-K1 cells overexpressing hLPAR1; read-out: LPAR1 inhibitory activity IC50
row,Compound,IC50 [µM]
1,"Cc1nc(-c2nnn(C)c2NC(=O)O[C@H](C)c2ccccc2Cl)ccc1C#C[C@@H]1CCCC[C@H]1C(=O)O (mixture of isomers) [031-B, trans-2-((6-(5-((((R)-1-(2-chlorophenyl)ethoxy)carbonyl)amino)-1-methyl-1H-1,2,3-triazol-4-yl)-2-methylpyridin-3-yl)ethynyl)cyclohexane-1-carboxylic acid]",0.0002
2,"Cc1nc(-c2nnn(C)c2COC(=O)N(C)[C@H](C)C2CC2)ccc1C#CC1(CC(=O)O)CC1 [compound 030, (R)-2-(1-((6-(5-((((1-cyclopropylethyl)(methyl)carbamoyl)oxy)methyl)-1-methyl-1H-1,2,3-triazol-4-yl)-2-methylpyridin-3-yl)ethynyl)cyclopropyl)acetic acid]",0.0336
3,"Cc1nc(-c2nnn(C)c2NC(=O)O[C@H](C)c2ccccc2)ccc1C#CC1(CC(=O)O)CC1 [compound 022, (R)-2-(1-((2-methyl-6-(1-methyl-5-(((1-phenylethoxy)carbonyl)amino)-1H-1,2,3-triazol-4-yl)pyridin-3-yl)ethynyl)cyclopropyl)acetic acid]",0.0095
4,Cc1nc(-c2nnn(C)c2COC(=O)N(C)CC2CC2(F)F)ccc1C#CC1(CC(=O)O)CC1 (stereo not shown) [compound 068],0.129
5,Cc1nc(-c2nnn(C)c2NC(=O)O[C@H](C)CC(C)(C)F)ccc1C#C[C@@H]1CC(F)(F)C[C@H]1C(=O)O [compound 273],0.0149
6,Cc1nc(-c2nnn(C)c2NC(=O)O[C@H](C)C(F)(F)C(C)C)ccc1C#C[C@@H]1CC[C@H]1C(=O)O [compound 307],0.151
7,"Cc1nc(-c2nnn(C)c2NC(=O)O[C@H](C)c2ccccc2)ccc1C#C[C@@H]1CCCC[C@H]1C(=O)O (mixture of isomers) [027-A, trans-2-((2-methyl-6-(1-methyl-5-((((R)-1-phenylethoxy)carbonyl)amino)-1H-1,2,3-triazol-4-yl)pyridin-3-yl)ethynyl)cyclohexane-1-carboxylic acid]",0.0026
8,"Cc1nc(-c2nnn(C)c2NC(=O)OC(C)CC2CC2)ccc1C#CC1CCC1C(=O)O (single isomer, unassigned) [248-B]",0.0191
9,"Cc1nc(-c2nnn(C)c2NC(=O)O[C@H](C)c2ccccc2F)ccc1C#CC1(CC(=O)O)CC1 [compound 014, (R)-2-(1-((6-(5-(((1-(2-fluorophenyl)ethoxy)carbonyl)amino)-1-methyl-1H-1,2,3-triazol-4-yl)-2-methylpyridin-3-yl)ethynyl)cyclopropyl)acetic acid]",0.0077
10,"Cc1nc(-c2nnn(C)c2NC(=O)O[C@H](C)c2ccccc2F)ccc1C#C[C@@H]1CCCC[C@H]1C(=O)O (mixture of isomers) [028-A, trans-2-((6-(5-((((R)-1-(2-fluorophenyl)ethoxy)carbonyl)amino)-1-methyl-1H-1,2,3-triazol-4-yl)-2-methylpyridin-3-yl)ethynyl)cyclohexane-1-carboxylic acid]",0.0176
11,"Cc1nc(-c2nnn(C)c2NC(=O)OC(C)CC(C)(C)F)ccc1C#CC1CCC1C(=O)O (single isomer, unassigned) [306-B]",0.0536
12,CCCCN(C)C(=O)OCc1c(-c2ccc(C#C[C@@H]3CC(F)(F)C[C@H]3C(=O)O)c(C)n2)nnn1C (racemic) [compound 252],0.0302
13,"CCC(F)(F)[C@@H](C)OC(=O)Nc1c(-c2ccc(C#C[C@@H]3CCC[C@H]3C(=O)O)c(C)n2)nnn1C (mixture of isomers) [219-A, trans-2-((6-(5-(((((R)-3,3-difluoropentan-2-yl)oxy)carbonyl)amino)-1-methyl-1H-1,2,3-triazol-4-yl)-2-methylpyridin-3-yl)ethynyl)cyclopentane-1-carboxylic acid]",0.0033
14,Cc1noc(-c2ccc(C#C[C@@H]3CCC[C@H]3C(=O)O)cn2)c1NC(=O)O[C@H](C)CC(C)(F)F [compound 344],0.104
15,Cc1nc(-c2nnn(C)c2COC(=O)N(C)CC2CC2C)ccc1C#CC1(CC(=O)O)CC1 (stereo not shown) [compound 073],0.0791
16,"CCC(F)(F)[C@@H](C)OC(=O)Nc1c(-c2ccc(C#C[C@@H]3CC[C@H]3C(=O)O)c(C)n2)nnn1C (mixture of isomers) [212-A, trans-2-((6-(5-(((((R)-3,3-difluoropentan-2-yl)oxy)carbonyl)amino)-1-methyl-1H-1,2,3-triazol-4-yl)-2-methylpyridin-3-yl)ethynyl)cyclobutane-1-carboxylic acid]",0.0421
17,"CCCc1ccnc(OCc2c(-c3ccc(C#CC4(CC(=O)O)CC4)c(C)n3)nnn2C)n1 [compound 217, 2-(1-((2-methyl-6-(1-methyl-5-(((4-propylpyrimidin-2-yl)oxy)methyl)-1H-1,2,3-triazol-4-yl)pyridin-3-yl)ethynyl)cyclopropyl)acetic acid]",0.0266
18,"Cc1nc(-n2nnc(C)c2NC(=O)O[C@H](C)c2ccccc2Cl)ccc1C#CC1(CC(=O)O)CC1 [compound 006, (R)-2-(1-((6-(5-(((1-(2-chlorophenyl)ethoxy)carbonyl)amino)-4-methyl-1H-1,2,3-triazol-1-yl)-2-methylpyridin-3-yl)ethynyl)cyclopropyl)acetic acid]",0.042
19,"Cc1nc(-c2nnn(C)c2COC(=O)N(C)CCCCF)ccc1C#CC1(CC(=O)O)CC1 [compound 034, 2-(1-((6-(5-((((4-fluorobutyl)(methyl)carbamoyl)oxy)methyl)-1-methyl-1H-1,2,3-triazol-4-yl)-2-methylpyridin-3-yl)ethynyl)cyclopropyl)acetic acid]",0.0527
20,"CN(CCCCF)C(=O)OCc1c(-c2ccc(C#CC3(CC(=O)O)CC3)c(C3CC3)n2)nnn1C [compound 218, 2-(1-((2-cyclopropyl-6-(5-((((4-fluorobutyl)(methyl)carbamoyl)oxy)methyl)-1-methyl-1H-1,2,3-triazol-4-yl)pyridin-3-yl)ethynyl)cyclopropyl)acetic acid]",0.0902
21,"Cc1nc(-c2nnn(C)c2NC(=O)OC(C)C2CCCC2)ccc1C#CC1(CC(=O)O)CC1 (stereo not shown) [092', 2-(1-((6-(5-(((1-cyclopentylethoxy)carbonyl)amino)-1-methyl-1H-1,2,3-triazol-4-yl)-2-methylpyridin-3-yl)ethynyl)cyclopropyl)acetic acid]",0.0187
22,Cc1nc(-c2nnn(C)c2NC(=O)O[C@H](C)CC(C)(F)F)ccc1C#C[C@@H]1CC(F)(F)C[C@H]1C(=O)O [compound 247],0.0102
23,Cc1noc(-c2ccc(C#CC3(CNS(=O)(=O)O)CC3)c(F)c2)c1NC(=O)O[C@H](C)c1ccccc1Cl [compound 460],0.0118
24,Cc1nc(-c2nnn(C)c2COc2nccc(C3CCC3)n2)ccc1C#CC1(CC(=O)O)CC1 [compound 194],0.0425
25,"CCC(F)(F)[C@@H](C)OC(=O)Nc1c(-c2ccc(C#CC3(CC(=O)O)CC3)c(Cl)n2)nnn1C [compound 209, (R)-2-(1-((2-chloro-6-(5-((((3,3-difluoropentan-2-yl)oxy)carbonyl)amino)-1-methyl-1H-1,2,3-triazol-4-yl)pyridin-3-yl)ethynyl)cyclopropyl)acetic acid]",0.0127
26,"CCC(F)(F)[C@@H](C)OC(=O)Nc1c(-c2ccc(C#CC3(CC(=O)O)CC3)c(C)n2)nnn1C [207', (R)-2-(1-((6-(5-((((3,3-difluoropentan-2-yl)oxy)carbonyl)amino)-1-methyl-1H-1,2,3-triazol-4-yl)-2-methylpyridin-3-yl)ethynyl)cyclopropyl)acetic acid]",0.0202
27,"Cc1nc(-c2nnn(C)c2NC(=O)O[C@H](C)c2ccccc2F)ccc1C#C[C@@H]1CCCC[C@H]1C(=O)O (mixture of isomers) [028-B, trans-2-((6-(5-((((R)-1-(2-fluorophenyl)ethoxy)carbonyl)amino)-1-methyl-1H-1,2,3-triazol-4-yl)-2-methylpyridin-3-yl)ethynyl)cyclohexane-1-carboxylic acid]",0.0604
28,"Cc1nc(-c2nnn(C)c2NC(=O)O[C@H](C)c2ccccc2Cl)ccc1C#C[C@@H]1CCCC[C@H]1C(=O)O (mixture of isomers) [031-A, trans-2-((6-(5-((((R)-1-(2-chlorophenyl)ethoxy)carbonyl)amino)-1-methyl-1H-1,2,3-triazol-4-yl)-2-methylpyridin-3-yl)ethynyl)cyclohexane-1-carboxylic acid]",0.0006

# From patent EP4755881A1 (Wuhan Createrna Science and Technology Co., Ltd., priority 2023, dated 2025)
